Key:
[1] = system: nucleotide excision repair (NER)-deficient HCT116 cells and their isogenic NER-proficient counterparts; test: potency in NER-deficient versus NER-proficient HCT116 cells; type: cell-based
From the text: (§1) A high degree of correlation was observed between cis and carbo activity, but not between those agents and PT-112. A correlation between PT-112 and oxali was also observed, which led to investigation of cellular targets and mechanisms not shared by these two agents. […] These effects comprise the release of HMGB1 and ATP, the cell surface exposure of calreticulin (CRT), and the suppression of STATS.

[2] = system: PANC1 pancreatic cancer model; test: PANC1 pancreatic cancer model; type: in vivo
[3] = system: HCT116 colorectal cancer cell line; test: calreticulin (CRT) cell surface exposure in HCT116 cells, flow cytometry; type: cell-based; details: HCT116, IC50 concentrations, 48 hours
Protocol: FIG. 2 illustrates the cell surface exposure of calreticulin (CRT) from cells treated with PT-112. CRT cell surface expression was measured via flow cytometry after 48 hours of drug treatment. A peak present to the right of the main peak indicates cells staining positive for CRT, a hallmark of ICD and an indicator of phagocyte targeting.
(§2) Two such DAMPs are high mobility group box 1 (HMGB1) and calreticulin (CRT). HMGB1 is released from dying cells during ICD, whereas CRT migrates from the endoplasmic reticulum to the cell surface during ICD. To test if PT-112 exposure results in these events that are considered hallmarks of ICD, in vitro experiments using the HCT116 colorectal cancer cell line were conducted.
Cells were then stained with an anti-CRT antibody, and positive staining was detected via flow cytometry.

[4] = system: broadly platinum-resistant cell panel; test: IC50 values in a broadly platinum-resistant cell panel; type: cell-based
From the text: as §1

[5] = set-up: species or system rats; details: rat, in vivo
From the text: Importantly, Pt in plasma, but not present in the PUF, is believed to be protein-bound and not bioavailable for therapeutic benefit.

p53 and MDM2 = test: impact on p53 and MDM2 levels; type: cell-based
From the text: as §1

[6] = system: GXF97 gastric patient-derived xenograft; test: GXF97 gastric patient-derived xenograft (PDX) model; type: in vivo; details: higher doses not tolerated by all mice, data not shown
[7] = system: HCT116 colon cancer model; test: phosphorylation of H2AX and induction of Ku70 in HCT116 colon cancer model; type: cell-based; details: versus oxali at equipotent concentrations
From the text: as §1

cancer cell models = test: Pt accumulation in DNA and whole cell extracts of cancer cell models; type: cell-based; details: previous work; compared with cisplatin or oxaliplatin exposure
From the text: PT-112 is a new chemical entity under clinical development in the US and the People's Republic of China, designed to minimize particular toxicities associated with traditional platinum agents and drug resistance stemming from DNA damage and repair. As a pyrophosphate-conjugated Pt-containing anti-neoplastic therapeutic, PT-112 differs from platinum therapies in both mechanism and toxicity. […] Nonetheless, PT-112 has potent cytotoxic activity in in vitro systems, implying a different spectrum of targets for PT-112 in comparison to traditional platinum compounds. We explored the activity and mechanism of action of PT-112 by investigating impacts on cancer related proteins and pathways, including those connected to immunogenic cell death (ICD), as well as how PT-112 potency is affected by DNA repair pathways. In addition, PT-112 anticancer activity, pharmacokinetics (PK), and toxicity were measured in multiple in vivo systems.

[8] = renal function and tolerability in rats; type: in vivo
MC38 cells = test: FACS analysis of tumor tissue, MC38 allograft; type: in vivo, mice
From the text: (§3) FIG. 8 illustrates fluorescence-activated cell sorting (FACS) analysis of tumor biopsies from a mouse allograft experiment, whereby immune-competent mice were implanted with MC38 cells and were subsequently randomized into control, PT-112, anti-PD-L1 antibody, or combination treatment. Bars are normalized to the control group.
FIG. 9 illustrates the effect of various treatments on the ratios of different cell populations from tumor biopsies in a mouse allograft experiment using the MC38 cell line, where mice were randomized into vehicle control, PT-112, anti-PD-L1 antibody, and combination treatment groups. […]
To better understand the effects of the different treatments on T cell populations, additional immuno-competent mice were implanted with MC38 cells and were subsequently randomized into control, PT-112, anti-PD-L1 antibody, or combination treatment arms (n=5). After 2 weeks of treatment (PT-112 @ 90 mg/kg QW and PD-L1 @ 10 mg/kg BIW), tumor tissue was removed and analyzed via FACS for differences in white blood cell populations. […]
Not all white blood cell populations are immunogenic. […] To better understand if the changes observed would have a net immunogenic or immunosuppressive effect, ratios of different cell populations were calculated (FIG. 9).

CT26 cells = test: FACS analysis of tumor tissue, CT26 allograft; type: in vivo, mice
From the text: as §3, with “6” for “8”, “CT26” for “MC38”, “anti-PD-L” for “anti-PD-L1”
FIG. 7 illustrates the effect of various treatments on the ratios of different cell populations from tumor biopsies in a mouse allograft experiment using the CT26 cell line, where mice were randomized into vehicle control, PT-112, anti-PD-L antibody, and combination treatment groups. PT-112 treatment groups had large increases in the ratio of immunogenic to immunosuppressive cell types, indicating PT-112 induces a more immunogenic tumor microenvironment.
Additionally, tumor tissue was removed from additional treated mice and analyzed via FACS for differences in white blood cell populations.

CXF280 colon PDX = CXF280 colon PDX model; type: in vivo
murine TSA cells = test: ATP release from TSA cells, luminometric assay; type: cell-based; details: 48 hours, two concentrations
Protocol: FIG. 3 illustrates the release of adenosine triphosphate (ATP) from cells treated with PT-112. ATP in the media of cells after 48 hours of drug treatment was measured via a luminometric assay. PT-112 was tested in two concentrations, as was cisplatin (a negative control for ICD), in addition to a single concentration of mitoxantrone (a positive ICD control) and an untreated negative control sample. ATP release is indicative of ICD and involved in recruitment and activation of antigen-presenting cells.
PT-112 was also tested for its ability to release the DAMP ATP (FIG. 3), which is involved in the recruitment and activation of antigen-presenting cells. Here, murine TSA cells were exposed to either PT-112 at two different concentrations, cisplatin (a negative control for ICD, also at two concentrations), mitoxantrone (a positive ICD control), or no drug control for 48 hours. Subsequently, ATP in the media was measured via a luminometric assay. […] This is again indicative of PT-112 robustly causing ICD.

[9] = system: immunogenic cell death (ICD); test: effects indicative of ICD induction versus oxali; type: cell-based; details: compared with oxali
From the text: as §1

[10] = chronic neuropathy indicators after repeat doses over 4 weeks (DRG Pt, NCV); type: in vivo
[11] = system: HCT116 colorectal cancer cell line; test: HMGB1 release from HCT116 cells, ELISA; type: cell-based; details: HCT116, IC50 concentrations, 48 hours
Protocol: FIG. 1 illustrates the release of high mobility group box 1 (HMGB1) from cells treated with PT-112. HMGB1 in the media of cells after 48 hours of drug treatment was measured via ELISA. HMGB1 release is involved in ICD and antigen presentation to dendritic cells. Error bars indicate 1 SEM, and p values were generated using two-tailed t-tests.
as §2
Subsequently, HMGB1 in the media of the cells was measured via ELISA.

[12] = mouse model of acute neurotoxicity (cold hypersensitivity); type: in vivo; details: single dose, PT-112 at twice the molar concentration of oxali
[13] = data from the literature; cited from earlier work
live tumor cells = test: vaccination experiment with live tumor cell challenge; type: in vivo, mice; details: vaccine from agent-killed cells
Protocol: FIG. 4 illustrates the survival advantage conferred when different vaccines are given to mice before being challenged with a live tumor cell injection. Vaccines are composed of dead and dying cancer cells of the same cell line exposed to different anti-cancer agents, killed by exposure to different agents.
The “gold standard” for ICD validation is a vaccine experiment, where mice are injected with dead cell material generated by exposing cells to an anticancer agent. Importantly, the anti-cancer agent is removed, and the mice are only injected with the dead and dying cells. Subsequently, after 1-2 weeks, mice are then challenged with an injection of live tumor cells of the same type used to create the vaccine.
This vaccination experiment was conducted using four different treatment groups, one unvaccinated negative control, and three receiving vaccines from the use of different agents: cisplatin (a negative control, non-ICD inducer), mitoxantrone (a positive control ICD inducer), and PT-112 (the experimental arm) (FIG. 4). The vast majority of mice (80-90%) in both negative control groups developed tumors rapidly (within one week).

For `O=P1(O)OP(=O)(O)[O][Pt]2([NH][C@@H]3CCCC[C@H]3[NH]2)[O]1` (stereo partly drawn) [PT-112, trans-(R,R)-1,2-cyclohexanediamine(pyrophosphato) platinum(II)], the “potency difference between NER-deficient and NER-proficient HCT116 cells” value [1] was “did not differ significantly”, the tumor growth [2] was “Sustained tumor growth delay” and the “anti-CRT antibody staining (cell surface CRT)” value [3] was “greater effect”. The “IC50 values compared with cis, carbo and oxali” value [4] was “superior to cis, carboplatin (carbo), and oxali in a majority of cell lines”, the “fraction of Pt in the plasma ultrafiltrate (PUF) relative to total plasma Pt” value [5] was 72.8% and the “stability in plasma (parent by LC-MS/MS)” value [5] was “stability of PT-112 in plasma”. The “impact on p53 and MDM2 levels” value (p53 and MDM2) was “noteworthy impact”, the “response at higher doses” value [6] was “Cases of complete response were observed” and the “effect on induction of Ku70” value [7] was “minimal effect”. The “effect on the phosphorylation of H2AX” value [7] was “minimal effect”, the “Pt accumulation in DNA and whole cell extracts” value (cancer cell models) was “significantly less Pt accumulation” and the “tolerated concentration relative to cis” value ([8]; rats) was 7 fold. For the same molecule, the “effects on renal function (creatinine, BUN and GFR)” value ([8]; rats, PT-112 at 7-fold higher concentrations than cis) was “minimal effects”, the “changes in white blood cell populations incl. cytotoxic T cells (CD8+) and helper T cells (CD4+) in tumor” value (MC38 cells; MC38, 2 weeks, PT-112 90 mg/kg QW, PD-L1 10 mg/kg BIW, FACS) was “large changes” and the “ratios of helper T cells and cytotoxic T cells to regulatory T cells” value (MC38 cells; MC38, FACS) was “positive effects”. For the same molecule, the “changes in cytotoxic T cell (CD8+) and helper T cell (CD4+) populations in tumor” value (CT26 cells) was “large changes”, the “ratio of immunogenic to immunosuppressive T cell populations” value (CT26 cells) was “favorable changes” and the tumor growth (CXF280 colon PDX) was “Sustained tumor growth delay”. For the same molecule, the “release of ATP into the media” value (murine TSA cells) was “robust release of ATP”, the “effects indicative of ICD induction (release of HMGB1 and ATP, cell surface exposure of CRT, suppression of STATS)” value [9] was “significantly greater extent than oxali” and the “accumulation of Pt in dorsal root ganglia (DRG) nerve tissue” value [10] was “minimal accumulation”. For the same molecule, the “nerve conduction velocity (NCV)” value [10] was “no significant loss”, the “HMGB1 release into the media” value [11] was “significantly higher” and the cold hypersensitivity [12] was “indistinguishable from untreated controls”.
In the case of `O=C1[O][Pt]2([NH][C@@H]3CCCC[C@H]3[NH]2)[O]C1=O` [oxaliplatin, reference compound], the “anti-CRT antibody staining (cell surface CRT)” value [3] is given as “enhanced staining relative to control”, the “fraction of Pt in the plasma ultrafiltrate (PUF)” value [13] is given as 28.2% and the “nerve conduction velocity (NCV)” value [10] is given as “dose-dependent declines”. For the same molecule, the “HMGB1 release into the media” value [11] was “elevated levels of HMGB1 in the media versus untreated control cells”.
For `N.N.[Cl][Pt][Cl]` [cisplatin, reference compound], the “mice that developed tumors” value (live tumor cells; within one week) was 80-90%, the “potency difference between NER-deficient and NER-proficient HCT116 cells” value [1] was “NER-competent cells were less sensitive” and the “effects on renal function (creatinine, BUN and GFR)” value ([8]; rat, in vivo) was “caused morbidity”.
In the case of `O=C1c2c(O)ccc(O)c2C(=O)c2c(NCCNCCO)ccc(NCCNCCO)c21` [mitoxantrone], the “mice remaining tumor free” value (live tumor cells; PT-112 group for over one month) is reported as 40%.
